# Measured values: patent publication US20250313569A1, “Pharmaceutical Compounds And Compositions As Modulators Of MAS-Related G-Protein Receptor X2” (Enanta Pharmaceuticals, Inc., priority 2024, published 2025)
# Columns and labels:
# MRGPRX2 LAD2 = target: T1, MRGPRX2 LAD2 (Homo sapiens, UniProt Q96LB1); experiment: LAD2 β-hexosaminidase release assay (degranulation), Cortistatin-14 at EC75; type: cell-based; conditions: LAD2 cells; 1 hour compound incubation, Cortistatin-14 at EC75 for 30 minutes; percent degranulation (β-hexosaminidase)
# T1 construct: host or cells: LAD2 human mast cells
# T1 sequence (Q96LB1 1-330): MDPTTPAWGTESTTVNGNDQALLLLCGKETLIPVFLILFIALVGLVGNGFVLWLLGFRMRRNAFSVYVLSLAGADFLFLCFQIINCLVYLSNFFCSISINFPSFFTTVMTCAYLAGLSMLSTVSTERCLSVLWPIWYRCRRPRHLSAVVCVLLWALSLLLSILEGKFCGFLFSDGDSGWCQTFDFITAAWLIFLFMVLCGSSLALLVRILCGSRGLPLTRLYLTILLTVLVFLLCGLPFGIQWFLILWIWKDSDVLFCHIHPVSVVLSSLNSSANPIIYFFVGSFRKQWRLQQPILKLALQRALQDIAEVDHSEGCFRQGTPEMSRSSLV
# human MRGPRX2 = target: T2, human MRGPRX2 (Homo sapiens, UniProt Q96LB1); experiment: MRGPRX2 IP-1 Gq HTRF assay in HEK293 cells stably expressing human MRGPRX2, Cortistatin-14 at EC75; type: cell-based; conditions: 2 hours at 37° C., cellular IP-1
# T2 construct: expressed in transfected cells; host or cells: HEK293
# T2 sequence (Q96LB1 1-330): T1 sequence (Q96LB1 1-330)
# Experimental: HEK293 cells stably expressing human MRGPRX2 were grown in Dulbecco's Modified Eagle Medium (DMEM) supplemented with 10% fetal bovine serum (FBS), 1% Glutamax, and 1 μg/mL of puromycin. Cells were maintained in a 37° C., 5% CO2 humidified incubator.
# Cells were plated in a 384-well assay plate at a density of 20,000 cells per well overnight. Compounds were solubilized at 10 mM in DMSO and added as a 10-point curve using an ECHO acoustic liquid handler. On the day of the assay, Cortistatin-14 was diluted in assay buffer (provided by IP-One-Gq-HTRF kit purchased from Cisbio, 62IPAPEJ) and added to the assay plate at a final concentration corresponding to the predetermined EC75. Plates were incubated at 37° C. for 2 hours prior to addition of HTRF detection reagents per the manufacturer's instructions. The plates were read on a Perkin Elmer Envision plate reader. The HTRF ratio and cellular IP-1 levels were calculated. XLfit was used to calculate an EC50 value for each compound using a 4-parameter logistic curve fitting model. EC50 ranges are reported as follows: A<100 nM; B 0.1-1 μM; C>1 μM.
EC50 (MRGPRX2 LAD2),EC50 (human MRGPRX2),Structure (SMILES)
< 0.1 µM,0.1 to 1 µM,CC(=O)N1C[C@@H](NC(=O)c2cccc(C(C)(C)O)c2)C[C@@H](Nc2cc(C(F)(F)F)nc3ccc(Cl)cc23)C1 [Example 41]
< 0.1 µM,< 0.1 µM,CC(=O)N1C[C@@H](NC(=O)c2cccc(NS(C)(=O)=O)c2)C[C@@H](Nc2cc(C(F)(F)F)nc3ccc(Cl)cc23)C1 [Example 2]
< 0.1 µM,0.1 to 1 µM,CC(=O)N1C[C@@H](NC(=O)c2cccc(NS(=O)(=O)C(F)(F)F)c2)C[C@@H](Nc2cc(C(F)(F)F)nc3ccc(Cl)cc23)C1 [Example 43]
0.1 to 1 µM,0.1 to 1 µM,CC(=O)N1C[C@@H](NC(=O)c2cnn(C3CC3)c2)C[C@@H](Nc2cc(C(F)(F)F)nc3ccc(Cl)cc23)C1 [Example 32]
